# Experimental data reported in article PMC6389703, “Identification of Biologically Active Ganoderma lucidum Compounds and Synthesis of Improved Derivatives That Confer Anti-cancer Activities in vitro” (Frontiers in Pharmacology, 2019).
# pEC50: −log10 of the molar value.
# How the values were obtained:
# SUM-149 cells [1] = test: Matrigel invasion assay (Transwell); assay type: cell-based, human; conditions: 72 h
# Protocol: Cell migration and invasion were measured by using Corning® FluoroBlok^TM Cell Culture Inserts and performing BD BioCoat Matrigel invasion assays (BD Biosciences, San José, CA, United States) as described in [Martinez-Montemayor et al. (2011)] and [Suarez-Arroyo et al. (2016)].
# MDA-MB-231 cells [2] = test: ApoTox-Glo Triplex assay, MDA-MB-231; assay type: cell-based, human
# Protocol: Cells (9.5 × 10^4/well in 75 μL of fresh medium) were dispensed in 96-well black flat bottom (8807BC, Corning) plates. The cells were incubated for 12 h at 37°C and then treated with compounds (25 μL) for 24 h. DMSO was used as a negative control, and staurosporine was used as the positive control. […] Then, the Caspase-Glo® 3/7 Reagent was added; plates were mixed briefly by orbital shaking (300-500 rpm for ∼30 s), followed by an additional 30 min incubation at RT. Then luminescence, which correlates with caspase 3/7 activation, was recorded with a plate reader to […] apoptosis induction.
# BCR-ABL cells = test: Cell Titer Glo viability assay, BCR-ABL; assay type: cell-based, murine; conditions: Mus musculus, 72-h treatment
# Protocol: (§1) Either 1 × 10^3–4.8 × 10^3 or 4 × 10^2–1.2 × 10^3 cells were seeded to each well of 96- or 384-well white polystyrene flat-bottomed plates (3610 or 8804BC, Corning) in 100 μL or 30 μL media per well, respectively. The concentrations used were experimentally determined to ensure logarithmic growth during the duration of the experiment and prevent adverse effects on cell growth by DMSO exposure. The plates were incubated at 37°C in 5% CO2 for 24 h before treatment. Stock solutions of test compounds (10 mM in DMSO) in nine 3-fold serial dilutions were dispensed via pintool (Biomek). The final concentration of DMSO was 0.3% (v/v) in each well. […] Luminescence was recorded in an Envision plate reader (PerkinElmer).
# (§2) For the CTG assay, 3 or 4 replicate assays were conducted for each experimental condition, and a minimum of 3 independent experiments were conducted for cellular assays. The mean luminescence of each experimental treatment group was normalized as a percentage of the mean intensity of untreated controls. EC50 values (μM) were calculated by Pipeline Pilot Software (Accelrys, Enterprise Platform, San Diego, CA, United States). EC50 values (μM) from the viability assay were calculated from dose response curve-fitting via non-linear regression by using GraphPad Prism (Version 7.0, San Diego, CA, United States). […]
# SUM-149 cells [3] = test: ROS measurement (CellROX green), SUM-149; assay type: cell-based, human; conditions: EP 20 μM
# Protocol: SUM-149 or MDA-MB-231 were plated in 96-well plates at a density of 2 × 10^4 and 1 × 10^4 cells/well, respectively, in black 96-well clear bottom tissue culture plates and incubated for 24 h at 37°C. The mRuby-Mito-7 plasmid was obtained from Addgene (#55874 from Michael Davidson). A stable clone of MCF-7 was generated by using Fugene 6 (Roche) to transfect cells (2 × 10^5) with plasmid (2.0 μg) under neomycin selection. A stable cell line was selected by using G418 (300 μg/mL) for 2 weeks, sorted by flow cytometry, and maintained under G418 thereafter. Transfected MCF-7 cells were plated at a density of 2 × 10^4 cells/well in black 96-well clear bottom tissue culture plates and incubated overnight at 37°C. To test for ROS formation and remove background, cells were replenished with fresh PBS with 2% FBS and treated with the desired compounds for 1 h at 37°C. DMSO (0.5%) was used as a negative control, while Menadione (Mena, at 10 μM) or t-Butyl hydroperoxide (TBHP) at 100 μM final concentration were used as a positive control. To evaluate the compounds’ effects on ROS formation inhibition, the free radical scavenger N-acetyl cysteine (NAC) was used. Cells were treated with or without NAC (500 μM or 100 μM) for 1 h, then CellROX® green reagent (Molecular Probes #C10444) was added to a final concentration of 5 μM, and cells were incubated for an additional 30 min at 37°C. Cells were then washed 2× with PBS, followed by fixation with 4% paraformaldehyde (v/v) for 15 min, and 2 more washes with PBS. Fluorescence intensity was measured in a Clariostar® plate reader (BMG LABTECH, Cary, NC, United States) at 535 nm.
# MDA-MB-231 cells [4] = test: Cell viability assay, MDA-MB-231; assay type: cell-based; conditions: Homo sapiens, Figure 4E
# Protocol: as §1, with “(PerkinElmer). […]” for “(PerkinElmer).”
# as §2
# MCF10A cells = test: cells; assay type: cell-based
# Protocol: Cell viability assays (MTT or PI staining assays) in SUM-149, SUM-190, MDA-MB-231, and MCF10A cells were performed as we previously described ([Suarez-Arroyo et al., 2016]).
# For the CTG assay, 3 or 4 replicate assays were conducted for each experimental condition, and a minimum of 3 independent experiments were conducted for cellular assays. The mean luminescence of each experimental treatment group was normalized as a percentage of the mean intensity of untreated controls. EC50 values (μM) were calculated by Pipeline Pilot Software (Accelrys, Enterprise Platform, San Diego, CA, United States). EC50 values (μM) from the viability assay were calculated from dose response curve-fitting via non-linear regression by using GraphPad Prism (Version 7.0, San Diego, CA, United States). For cell viability, colony formation, cell-cycle progression, cell death, and western blot assays, the analyses were performed via one-way or two-way ANOVA with post-testing for each condition (concentration, cell cycle stage, apoptotic event, cell line) by using GraphPad Prism.
# [5] = Incubation of EP with NAC, monitored by NMR and LC-MS; assay type: physicochemical; conditions: NAC in DMSO, 24 h at 37°C
# MDA-MB-231 cells [6] = test: De novo in-cell protein synthesis (click assay); assay type: cell-based, human; conditions: 2 h; EP 20 μM
# Protocol: First, 2.5 × 10^4 cells/well were seeded in 8-well μ-slides (Ibidi®, #80826) and incubated at 37°C for 12 h. The cells were treated with vehicle, compounds Ganoderic acid A or EP, or cycloheximide (positive control) for 2 h to determine protein synthesis as nascent proteins generated using Biovision’s EZClick^TM Global Protein Synthesis Assay Kit, (#K715-100, Milpitas, CA, United States). The assay includes a robust chemical method based on an alkyne containing o-propargyl-puromycin (OP-puro) probe, which stops translation by forming covalent conjugates with nascent polypeptide chains. Truncated polypeptides are rapidly turned over by the proteasome and can be detected based on the subsequent click reaction with a fluorescent azide. The reaction was conducted according to the manufacturer’s protocol. Cells were imaged at 20× with a Nikon C2 scanning confocal microscope, and the whole image montage was quantified by using Gen5 Software and Lionheart^TM FX Automated Microscope (BioTek, Winooski, VT, United States).
compound,measurement,setting,value
"CC(C)[C@@H](C)/C=C/[C@@H](C)[C@H]1CC[C@@H]2[C@]1(C)CC[C@H]1[C@]23C=C[C@]2(C[C@@H](O)CC[C@]12C)OO3 [EP, ergosterol peroxide]",invading cells,SUM-149 cells [1]; 10 μM,significant reduction
same,decrease in invasion,SUM-149 cells [1]; 15 μM,43%
same,cytotoxicity by membrane integrity,MDA-MB-231 cells [2]; MDA-MB-231,increased cytotoxicity
same,caspase 3/7 activity,"MDA-MB-231 cells [2]; MDA-MB-231, 24 h",increase caspase 3/7 activity
same,viability (GF-AFC),"MDA-MB-231 cells [2]; MDA-MB-231, 24 h",decrease viability
same,pEC50,BCR-ABL cells,5.16
same,ROS formation (fold),SUM-149 cells [3]; 1 h,fourfold
same,reduction in ROS formation in the presence of NAC,"SUM-149 cells [3]; NAC 500 μM, menadione 10 μM",about 20%
same,pEC50,MDA-MB-231 cells [4],4.72
same,cytotoxicity in MCF10A non-cancerous mammary epithelial cells,MCF10A cells,did not induce cytotoxicity
same,pEC50,"MCF10A cells; Homo sapiens, MCF-10A, PI staining, 72-h treatment",< 4.00
same,reaction of the endoperoxide motif with NAC,[5],no observable olefin migration or opening of the endoperoxide was detected
same,de novo protein synthesis inhibition,MDA-MB-231 cells [6],do not inhibit
